# “Also recorded” adds a separate entry of the source.
# Assays:
# [1] = test system: human fibroblast cells (HFL-1); assay: Cytotoxicity against human fibroblast cells (PrestoBlue); details: 0.01-10 μM for 48 h; much less than on mast cells
# [2] = test system: Bone marrow-derived mast cells (BMMCs); details: mouse
# [3] = test system: human skin mast cells (hskinMC); assay: Cell death assessment in human skin mast cells; assay type: cell-based
# Experimental: (§1) To assess cell death, cells were stained with Annexin V and either DRAQ7™ or Via-Probe™ Red Nucleic Acid Stain and analyzed by flow cytometry. To probe pH in acidic organelles, cells were incubated with LysoSensor Blue DND-167, followed by flow cytometry. The relative intracellular pH changes were assessed using the cell-permeable pH-sensitive fluorescent indicator (BCFL-AM). Intracellular calcium changes were assessed using Fluo-4/AM.
# (§2) Next, the inventors assessed if monensin is cytotoxic for human mast cells by assessing its effect on immature human mast cell lines (LUVA, HMC-1) and on fully mature skin mast cells (hskinMC).
# peritoneal MCs = assay: Mouse peritoneal lavage cells, viability by flow cytometry: MCs; assay type: cell-based; details: 0-10 μM for 24 h
# Experimental: (§3) Mouse peritoneal cells were treated with monensin and stained with labeled antibodies against CD117 (2B8), FcεRI (MAR-1), Siglec-F (E50-2440), CD11b (M1/70), F4/80 (BM8), CD3 (17A2), CD4 (GK1.5), CD8b (eBioH35-17.2) and CD19 (ebuo1D3).
# as §1
# (§4) To this end, monensin was added to cells recovered by peritoneal lavage of mice, followed by flow cytometry analysis to assess the effects of monensin on the various cell populations of the peritoneum.
# (§5) Peritoneal cell populations were recovered by peritoneal lavage of mice. The gating strategy to identify viable cells and to identify macrophages, lymphocytes, MCs and eosinophils within the peritoneal cell population is shown in (A). […] The panels show quantification of viable (Annexin V^−/Via-Probe^−) cells; in the MC (B), lymphocyte (C), macrophage (D) and eosinophil (E) populations (n=3).
# [4] = test system: human fibroblast cells (HFL-1)
# MCs [5] = assay: Hexosaminidase release from MCs; assay type: cell-based
# HEK293 cells = assay: Cytotoxicity against HEK293 cells (PrestoBlue); assay type: cell-based, human; details: 0.01-10 μM for 48 h; much less than on mast cells
# human eosinophils = assay: Human peripheral blood-derived cells, viability: eosinophils; assay type: cell-based
# Experimental: Mononuclear cells and granulocytes were purified from heparinized human peripheral blood. Cells were stained with antibodies against CD4 (RPA-T4), CD8 (RPA-T8), CD19 (HIB19) and CD14 (M5E2) or CCR3 (5E8) and CD15 (W6D3) for analysis of mononuclear cells and granulocytes, respectively.
# as §1
# To extend these findings into the corresponding human leukocyte populations, the inventors assessed the effects of monensin on eosinophils (B), human blood monocytes (C), lymphocytes (D), and neutrophils (E).
# peritoneal macrophages = assay: Mouse peritoneal lavage cells, viability by flow cytometry: macrophages; assay type: cell-based; details: 0-10 μM for 24 h
# Experimental: as §3, §1, §4, §5
# MCs [6] = assay: Intracellular calcium in MCs (Fluo-4/AM); assay type: cell-based
# Experimental: as §1
# MCs [7] = assay: Cell death in absence or presence of caspase inhibitor Z-DEVD; assay type: cell-based; details: 1 or 10 μM monensin, with or without Z-DEVD
# Experimental: MCs were treated with 1 or 10 μM monensin, either in the absence or presence of a caspase inhibitor: Z-DEVD. Flow cytometry was used to distinguish between viable (Annexin V^−/DRAQ7^−), apoptotic (Annexin V^+/DRAQ7^−) and necrotic (Annexin V^+/DRAQ7^+) cells. […] In line with the latter, the extent of cell death in response to monensin was not affected by the caspase inhibitor, Z-DEVD (FIG. 3).
# BMMCs [8] = assay: Granule acidity, LysoSensor Blue DND-167 staining of BMMCs; assay type: cell-based, mouse; details: 0-10 μM for 30 min
# Experimental: as §1
# (§6) BMMCs were treated with 1 μM monensin for 12 and 24 h, followed by Annexin V/DRAQ7 staining to measure cell death. MCs were gated into cells having high and low maturity, as assessed by SSC analysis for granularity (A). The right panels depict the quantification of apoptotic (Annexin V^+/DRAQ7^−) and necrotic (Annexin V^+/DRAQ7^+) cell death in the respective populations (n=3). (B) BMMCs (0.5×10^6 cells) were developed from WT (FIG. 4B) or serglycin^−/− (SG^−/−) mice (data not shown) and were treated with monensin 0-10 μM for 24 h, followed by cell death assessment (Annexin V/DRAQ7 staining). […] To further assess the impact of the secretory granules on monensin-induced cell death, it was evaluated whether the absence of serglycin, a granule-restricted proteoglycan, affects the response to monensin. […]
# [9] = test system: mouse bone-marrow-derived mast cells (BMMCs); assay: Annexin V/DRAQ7 cell death assessment in BMMCs; assay type: cell-based
# Experimental: as §1
# To analyze the mechanism by which monensin acts on mast cells, Annexin V/DRAQ7 staining was first adopted to assess the type of cell death induced by monensin, the gating is shown in FIG. 2A. […] Necrotic/late apoptotic (Annexin V^+/DRAQ7^+) cells were also seen, but to a lesser extent (right panel).
# BMMCs were treated with 1 μM monensin for 12 and 24 h, followed by Annexin V/DRAQ7 staining to measure cell death. MCs were gated into cells having high and low maturity, as assessed by SSC analysis for granularity (A). The right panels depict the quantification of apoptotic (Annexin V^+/DRAQ7^−) and necrotic (Annexin V^+/DRAQ7^+) cell death in the respective populations (n=3). (B) BMMCs (0.5×10^6 cells) were developed from WT (FIG. 4B) or serglycin^−/− (SG^−/−) mice (data not shown) and were treated with monensin 0-10 μM for 24 h, followed by cell death assessment (Annexin V/DRAQ7 staining). BMMCs (C; 0.5×10^6 cells) or human skin MCs (0.1×10^6 cells; D) were treated with monensin or bafilomycin A 0-10 μM for 30 min, followed by staining with LysoSensor Blue DND-167 (a lysosome probe sensitive to decreased pH) (n=4). BMMCs (0.5×10^6 cells) were treated with either monensin or bafilomycin A (20 nM) alone or in combination (E), followed by measurement of cell death (Annexin V/DRAQ7 staining). (F) BMMCs were treated with monensin or bafilomycin A for 4 and 24 h, followed by assessment of cytosolic pH (n=2). […] To further assess the impact of the secretory granules on monensin-induced cell death, it was evaluated whether the absence of serglycin, a granule-restricted proteoglycan, affects the response to monensin. Both WT and serglycin^−/− BMMCs were sensitive to cell death induced by monensin.
# BMMCs [10] = assay: Cytosolic pH in BMMCs (BCFL-AM); assay type: cell-based, mouse; details: 4 and 24 h
# Experimental: as §1, §6
# Caspase 3 & 7 = Caspase 3 & 7 activation in mast cells
# [11] = test system: immature human mast cell line LUVA; assay: Cell death assessment in LUVA cells; assay type: cell-based; details: lower potency than for BMMCs and PCMCs
# Experimental: as §1, §2
structure (smiles),measurement,setting,value
"CC[C@]1([C@H]2O[C@H]([C@@H]3O[C@](O)(CO)[C@@H](C)C[C@H]3C)C[C@H]2C)CC[C@@H]([C@@]2(C)CC[C@@]3(C[C@@H](O)[C@H](C)[C@H]([C@H](C)[C@H](OC)[C@H](C)C(=O)O)O3)O2)O1 [Monensin, 4-[2-[5-ethyl-5-[5-[6-hydroxy-6-(hydroxymethyl)-3,5-dimethyl-oxan-2-yl]-3-methyl-oxolan-2-yl]oxolan-2-yl]-9-hydroxy-2,8-dimethyl-1,6-dioxaspiro[4.5]dec7-yl]-3-methoxy-2-methyl-pentanoic acid]","Concentration from which a cytotoxic effect was exhibited, HFL-1",[1],≥ 1000 nM
same,Viability % (1 μM),[2]; 1 µM,72%
same,Viability % (10 μM),"[2]; 24 h, 10 µM",66%
same,Sensitivity of human skin mast cells,[3]; especially after longer incubation time,considerable sensitivity
same,Type of cell death in human skin mast cells,[3]; sign of necrosis almost negligible,mainly apoptosis
same,Concentrations at which peritoneal MCs were extensively depleted (down to),peritoneal MCs,≥ 10 nM
same,Cytotoxicity at 10 μM on HSFib (HFL-1) cells,[4],exhibited cytotoxicity
same,Release of hexosaminidase,MCs [5],did not cause
same,"Concentration from which a cytotoxic effect was exhibited, HEK293",HEK293 cells,≥ 1000 nM
same,Response of human eosinophils,human eosinophils,sensitive
same,Response of peritoneal macrophages,peritoneal macrophages,resistant
same,Cytosolic calcium,MCs [6],did not cause an increase
same,Extent of cell death in presence of caspase inhibitor Z-DEVD,MCs [7],not affected
same,"LysoSensor Blue DND-167 staining / granule acidity, BMMCs",BMMCs [8],marked reduction
same,Type of cell death in serglycin−/− BMMCs,"[9]; 0-10 μM for 24 h, serglycin−/− BMMCs",predominantly Annexin V/DRAQ7 double-positive
same,Sensitivity of mast cells with high granularity versus low granularity,"[9]; 1 μM, 12 and 24 h, SSC gating",markedly more sensitive
same,Type of cell death in WT BMMCs (Annexin V/DRAQ7),[9]; WT BMMCs,predominantly Annexin V single positivity; also recorded: predominantly apoptotic cell death
same,Cytosolic pH,BMMCs [10],significant drop
same,Caspase 3 & 7 activation,Caspase 3 & 7,−
same,Caspase-3 & 7 activation,Caspase 3 & 7,absence of a positive signal; also recorded: does not cause caspase-3 & 7 activations
same,Cytotoxicity to LUVA cells,[11],cytotoxic

# Reference: patent US20240226057A1, “NEW USE OF MONENSIN” (MAST PHARMA AB, priority 2021, published 2024)
